According to patent US8802849B2, “Tricyclic benzo[4,5]thieno-[2,3-d]pyrimidine-4-yl-amin derivatives, their salts, process for producing the compounds and their pharmaceutical use” (Vichem Chemie Kutató Kft., priority 2008, dated 2014):

Legend:
CDK2/CycA = CDK2/CycA (Homo sapiens, UniProt P24941); assay: CDK2/CycA kinase assay; type: biochemical; conditions: 10 μM compound; read-out: CDK2/CycA percent of inhibition
Description: (§1) General description of the kinase assays: the kinase activity was assayed in 96-well microtiter plates at a final compound concentration of 10 μM in a total volume of 50 μl. Compounds were dissolved in 100% DMSO to prepare a 10 mM stock solution and than diluted with buffer to reach a 10 μM (or the required) final concentration. The kinase concentration was used to yield 10% ATP turn over. The ATP concentration was used at the KmATP and 12.5 μCi/ml adenosine 5′[γ-33P]triphosphate. The substrate concentration was used at 5 fold excess over the Km for the substrate. The reaction was incubated for 1 hour at room temperature and stopped by addition of 10 μl 50 mM EDTA. The assay was transferred to a 96 well MAPH filter plate (Millipore). The radioactivity was counted on a Microbeta microplate counter.

CK1-alpha = CK1-alpha (Homo sapiens, UniProt P48729); assay: CK1-alpha kinase assay; type: biochemical; conditions: 10 μM compound; read-out: CK1-alpha percent of inhibition
Description: as §1

EGFR = EGFR (Homo sapiens, UniProt P00533); assay: EGFR kinase assay (33P-ATP filter plate); type: biochemical; conditions: 10 μM compound; read-out: EGFR percent of inhibition
Description: as §1

GSK-3beta = GSK-3beta (Homo sapiens, UniProt P49841); assay: GSK-3beta kinase assay; type: biochemical; conditions: 10 μM compound; read-out: GSK-3beta percent of inhibition
Description: as §1

Kit = Kit (Homo sapiens, UniProt P10721); assay: Kit kinase assay; type: biochemical; conditions: 10 μM compound; read-out: Kit percent of inhibition
Description: as §1

InsR = InsR (Homo sapiens, UniProt P06213); assay: InsR kinase assay; type: biochemical; conditions: 10 μM compound; read-out: InsR percent of inhibition
Description: as §1

Abl = Abl (Homo sapiens, UniProt P00519); assay: Abl kinase assay; type: biochemical; conditions: 10 μM compound; read-out: Abl percent of inhibition
Description: as §1

SRPK1 = SRPK1 (Homo sapiens, UniProt Q96SB4); assay: SRPK1 kinase assay; type: biochemical; conditions: 10 μM compound; read-out: SRPK1 percent of inhibition
Description: as §1

AKT1/PKBa = AKT1/PKBa (Homo sapiens, UniProt P31749); assay: AKT1/PKBa kinase assay; type: biochemical; conditions: 10 μM compound; read-out: AKT1/PKBa percent of inhibition
Description: as §1

Jnk1a1 = Jnk1a1 (Homo sapiens, UniProt P45983); assay: Jnk1a1 kinase assay; type: biochemical; conditions: 10 μM compound; read-out: Jnk1a1 percent of inhibition
Description: as §1

PDGFR-beta = PDGFR-beta (Homo sapiens, UniProt P09619); assay: PDGFR-beta kinase assay; type: biochemical; conditions: 10 μM compound; read-out: PDGFR-beta percent of inhibition
Description: as §1

cMet = cMet (Homo sapiens, UniProt P08581); assay: cMet kinase assay; type: biochemical; conditions: 10 μM compound; read-out: cMet percent of inhibition
Description: as §1

ROCK2 = ROCK2 (Homo sapiens, UniProt O75116); assay: ROCK2 kinase assay; type: biochemical; conditions: 10 μM compound; read-out: ROCK2 percent of inhibition
Description: as §1

RSK1 = RSK1 (Homo sapiens, UniProt Q15418); assay: RSK1 kinase assay; type: biochemical; conditions: 10 μM compound; read-out: RSK1 percent of inhibition
Description: as §1

IKK-beta = molecular target: T1, IKK-beta (Homo sapiens, UniProt O14920); assay: IKK-beta kinase assay; type: biochemical; conditions: 10 μM compound; read-out: IKK-beta percent of inhibition
T1 sequence (O14920 1-756): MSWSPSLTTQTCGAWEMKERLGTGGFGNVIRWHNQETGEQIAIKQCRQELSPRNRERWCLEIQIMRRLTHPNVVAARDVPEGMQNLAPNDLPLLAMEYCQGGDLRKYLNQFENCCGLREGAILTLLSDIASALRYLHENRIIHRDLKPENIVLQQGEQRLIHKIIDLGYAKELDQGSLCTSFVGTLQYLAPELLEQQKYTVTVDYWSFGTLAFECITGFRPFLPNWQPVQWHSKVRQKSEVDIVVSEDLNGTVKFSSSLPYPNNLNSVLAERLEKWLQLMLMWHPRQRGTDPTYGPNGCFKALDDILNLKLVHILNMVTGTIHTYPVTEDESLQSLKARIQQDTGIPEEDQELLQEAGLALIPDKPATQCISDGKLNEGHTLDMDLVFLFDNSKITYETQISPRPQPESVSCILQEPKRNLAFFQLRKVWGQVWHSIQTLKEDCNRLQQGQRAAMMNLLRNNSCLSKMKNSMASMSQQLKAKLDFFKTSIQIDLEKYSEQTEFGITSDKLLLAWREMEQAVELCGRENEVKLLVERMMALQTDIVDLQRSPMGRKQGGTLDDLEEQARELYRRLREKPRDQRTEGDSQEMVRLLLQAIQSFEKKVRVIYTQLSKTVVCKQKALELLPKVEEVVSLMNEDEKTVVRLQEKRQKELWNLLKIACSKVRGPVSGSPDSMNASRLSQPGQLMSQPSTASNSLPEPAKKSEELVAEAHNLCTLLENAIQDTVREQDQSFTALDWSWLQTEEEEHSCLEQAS
Description: as §1

c-Raf = c-Raf (Homo sapiens, UniProt P04049); assay: c-Raf kinase assay; type: biochemical; conditions: 10 μM compound; read-out: c-Raf percent of inhibition
Description: as §1

c-Src = c-Src (Homo sapiens, UniProt P12931); assay: c-Src kinase assay; type: biochemical; conditions: 10 μM compound; read-out: c-Src percent of inhibition
Description: as §1

P70S6K = P70S6K (Homo sapiens, UniProt P23443); assay: P70S6K kinase assay; type: biochemical; conditions: 10 μM compound; read-out: P70S6K percent of inhibition
Description: as §1

MAPK-ERK1 = MAPK-ERK1 (Homo sapiens, UniProt P27361); assay: MAPK-ERK1 kinase assay; type: biochemical; conditions: 10 μM compound; read-out: MAPK-ERK1 percent of inhibition
Description: as §1

P56Lck = P56Lck (Homo sapiens, UniProt P06239); assay: P56Lck kinase assay; type: biochemical; conditions: 10 μM compound; read-out: P56Lck percent of inhibition
Description: as §1

Sequence of EGFR (P00533 25-1210): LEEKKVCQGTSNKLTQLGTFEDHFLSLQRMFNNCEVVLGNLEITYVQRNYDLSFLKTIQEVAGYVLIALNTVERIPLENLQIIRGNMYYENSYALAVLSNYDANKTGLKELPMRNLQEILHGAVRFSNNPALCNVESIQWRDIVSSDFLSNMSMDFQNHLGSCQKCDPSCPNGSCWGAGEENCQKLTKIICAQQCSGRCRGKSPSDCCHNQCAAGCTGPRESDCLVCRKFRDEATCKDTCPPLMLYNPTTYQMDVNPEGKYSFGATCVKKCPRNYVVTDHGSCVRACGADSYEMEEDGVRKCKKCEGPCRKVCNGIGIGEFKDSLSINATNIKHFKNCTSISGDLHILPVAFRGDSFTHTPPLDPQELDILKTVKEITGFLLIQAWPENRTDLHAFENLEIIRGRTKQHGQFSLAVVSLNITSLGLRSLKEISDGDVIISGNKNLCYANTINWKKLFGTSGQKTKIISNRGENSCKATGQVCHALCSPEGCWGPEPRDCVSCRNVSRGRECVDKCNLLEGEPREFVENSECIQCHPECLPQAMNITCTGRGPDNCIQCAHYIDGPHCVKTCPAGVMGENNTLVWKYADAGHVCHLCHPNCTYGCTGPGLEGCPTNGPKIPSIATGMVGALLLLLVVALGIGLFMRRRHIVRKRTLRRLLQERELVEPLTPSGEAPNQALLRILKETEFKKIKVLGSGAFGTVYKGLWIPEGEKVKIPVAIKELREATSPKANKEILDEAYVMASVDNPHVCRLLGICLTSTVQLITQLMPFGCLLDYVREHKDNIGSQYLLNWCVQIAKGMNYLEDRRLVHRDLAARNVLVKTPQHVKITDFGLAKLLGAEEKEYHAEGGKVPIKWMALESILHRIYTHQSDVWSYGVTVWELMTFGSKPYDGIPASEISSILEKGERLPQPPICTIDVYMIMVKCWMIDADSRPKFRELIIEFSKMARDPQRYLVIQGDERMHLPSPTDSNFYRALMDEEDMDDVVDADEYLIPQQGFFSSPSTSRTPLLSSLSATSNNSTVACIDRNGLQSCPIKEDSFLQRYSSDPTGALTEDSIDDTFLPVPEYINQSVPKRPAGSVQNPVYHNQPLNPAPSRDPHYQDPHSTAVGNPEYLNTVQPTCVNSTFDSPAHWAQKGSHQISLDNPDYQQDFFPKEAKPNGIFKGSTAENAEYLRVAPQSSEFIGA
Sequence of AKT1/PKBa (P31749 whole entry): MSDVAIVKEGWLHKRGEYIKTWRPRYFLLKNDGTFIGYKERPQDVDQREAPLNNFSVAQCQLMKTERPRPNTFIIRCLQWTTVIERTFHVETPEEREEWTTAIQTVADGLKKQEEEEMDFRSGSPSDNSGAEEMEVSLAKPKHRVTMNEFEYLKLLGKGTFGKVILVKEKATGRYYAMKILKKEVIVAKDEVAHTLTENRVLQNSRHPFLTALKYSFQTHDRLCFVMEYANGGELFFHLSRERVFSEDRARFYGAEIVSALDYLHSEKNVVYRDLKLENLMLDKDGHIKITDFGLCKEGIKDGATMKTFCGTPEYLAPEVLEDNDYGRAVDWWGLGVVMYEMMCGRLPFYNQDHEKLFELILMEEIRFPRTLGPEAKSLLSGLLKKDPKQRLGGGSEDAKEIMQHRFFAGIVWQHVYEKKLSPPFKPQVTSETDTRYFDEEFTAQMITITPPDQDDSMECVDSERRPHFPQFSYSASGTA
Sequence of c-Src (P12931 whole entry, species assumed): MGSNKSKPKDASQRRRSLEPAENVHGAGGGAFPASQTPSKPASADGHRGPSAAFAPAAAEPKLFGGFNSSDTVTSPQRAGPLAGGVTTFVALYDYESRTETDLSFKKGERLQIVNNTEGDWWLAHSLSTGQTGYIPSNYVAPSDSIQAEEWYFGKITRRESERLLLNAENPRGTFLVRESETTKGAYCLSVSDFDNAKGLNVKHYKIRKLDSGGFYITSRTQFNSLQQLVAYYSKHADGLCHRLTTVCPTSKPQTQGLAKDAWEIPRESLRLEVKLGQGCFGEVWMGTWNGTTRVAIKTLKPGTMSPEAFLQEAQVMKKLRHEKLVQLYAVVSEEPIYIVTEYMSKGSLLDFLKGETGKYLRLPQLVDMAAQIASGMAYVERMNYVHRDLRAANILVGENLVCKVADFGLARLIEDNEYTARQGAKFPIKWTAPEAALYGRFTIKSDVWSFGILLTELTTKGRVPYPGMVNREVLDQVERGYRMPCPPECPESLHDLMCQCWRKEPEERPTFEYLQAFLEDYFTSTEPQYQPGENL
Sequence of InsR (P06213 28-1382, species assumed): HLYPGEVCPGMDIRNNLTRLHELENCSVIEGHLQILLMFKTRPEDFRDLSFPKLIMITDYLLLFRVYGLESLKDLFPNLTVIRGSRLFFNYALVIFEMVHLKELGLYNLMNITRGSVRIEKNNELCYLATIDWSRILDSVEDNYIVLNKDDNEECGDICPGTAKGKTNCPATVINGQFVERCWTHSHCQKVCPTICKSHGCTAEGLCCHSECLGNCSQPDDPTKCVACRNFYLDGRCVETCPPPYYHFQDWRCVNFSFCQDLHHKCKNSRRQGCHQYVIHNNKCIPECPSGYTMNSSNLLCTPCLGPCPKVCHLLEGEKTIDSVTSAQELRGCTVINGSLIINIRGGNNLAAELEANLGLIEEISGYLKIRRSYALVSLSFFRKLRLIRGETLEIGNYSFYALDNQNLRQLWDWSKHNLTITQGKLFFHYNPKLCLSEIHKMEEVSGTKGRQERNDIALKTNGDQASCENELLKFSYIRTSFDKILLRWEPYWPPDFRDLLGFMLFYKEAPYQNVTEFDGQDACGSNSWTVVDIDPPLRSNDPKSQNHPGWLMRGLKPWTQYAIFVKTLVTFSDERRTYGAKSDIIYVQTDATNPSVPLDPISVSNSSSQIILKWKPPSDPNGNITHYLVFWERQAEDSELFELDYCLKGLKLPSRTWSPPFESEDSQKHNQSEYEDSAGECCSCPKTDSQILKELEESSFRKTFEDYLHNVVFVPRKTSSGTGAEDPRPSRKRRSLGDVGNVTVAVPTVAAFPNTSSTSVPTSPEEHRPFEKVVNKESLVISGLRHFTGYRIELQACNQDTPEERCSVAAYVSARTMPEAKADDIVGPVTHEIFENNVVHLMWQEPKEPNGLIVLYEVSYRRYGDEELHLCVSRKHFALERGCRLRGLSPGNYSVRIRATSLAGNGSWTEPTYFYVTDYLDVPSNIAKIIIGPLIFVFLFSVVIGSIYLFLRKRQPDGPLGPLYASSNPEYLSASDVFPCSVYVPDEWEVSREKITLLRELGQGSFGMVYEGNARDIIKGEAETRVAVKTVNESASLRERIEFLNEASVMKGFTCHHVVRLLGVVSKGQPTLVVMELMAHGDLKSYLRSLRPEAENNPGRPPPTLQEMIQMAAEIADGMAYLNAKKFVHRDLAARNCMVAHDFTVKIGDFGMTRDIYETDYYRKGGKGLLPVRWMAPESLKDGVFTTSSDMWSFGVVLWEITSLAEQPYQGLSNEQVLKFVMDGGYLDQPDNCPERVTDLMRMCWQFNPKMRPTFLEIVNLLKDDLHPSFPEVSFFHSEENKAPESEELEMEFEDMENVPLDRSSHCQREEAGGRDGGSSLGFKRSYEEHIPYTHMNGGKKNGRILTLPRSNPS
Sequence of cMet (P08581 25-1390): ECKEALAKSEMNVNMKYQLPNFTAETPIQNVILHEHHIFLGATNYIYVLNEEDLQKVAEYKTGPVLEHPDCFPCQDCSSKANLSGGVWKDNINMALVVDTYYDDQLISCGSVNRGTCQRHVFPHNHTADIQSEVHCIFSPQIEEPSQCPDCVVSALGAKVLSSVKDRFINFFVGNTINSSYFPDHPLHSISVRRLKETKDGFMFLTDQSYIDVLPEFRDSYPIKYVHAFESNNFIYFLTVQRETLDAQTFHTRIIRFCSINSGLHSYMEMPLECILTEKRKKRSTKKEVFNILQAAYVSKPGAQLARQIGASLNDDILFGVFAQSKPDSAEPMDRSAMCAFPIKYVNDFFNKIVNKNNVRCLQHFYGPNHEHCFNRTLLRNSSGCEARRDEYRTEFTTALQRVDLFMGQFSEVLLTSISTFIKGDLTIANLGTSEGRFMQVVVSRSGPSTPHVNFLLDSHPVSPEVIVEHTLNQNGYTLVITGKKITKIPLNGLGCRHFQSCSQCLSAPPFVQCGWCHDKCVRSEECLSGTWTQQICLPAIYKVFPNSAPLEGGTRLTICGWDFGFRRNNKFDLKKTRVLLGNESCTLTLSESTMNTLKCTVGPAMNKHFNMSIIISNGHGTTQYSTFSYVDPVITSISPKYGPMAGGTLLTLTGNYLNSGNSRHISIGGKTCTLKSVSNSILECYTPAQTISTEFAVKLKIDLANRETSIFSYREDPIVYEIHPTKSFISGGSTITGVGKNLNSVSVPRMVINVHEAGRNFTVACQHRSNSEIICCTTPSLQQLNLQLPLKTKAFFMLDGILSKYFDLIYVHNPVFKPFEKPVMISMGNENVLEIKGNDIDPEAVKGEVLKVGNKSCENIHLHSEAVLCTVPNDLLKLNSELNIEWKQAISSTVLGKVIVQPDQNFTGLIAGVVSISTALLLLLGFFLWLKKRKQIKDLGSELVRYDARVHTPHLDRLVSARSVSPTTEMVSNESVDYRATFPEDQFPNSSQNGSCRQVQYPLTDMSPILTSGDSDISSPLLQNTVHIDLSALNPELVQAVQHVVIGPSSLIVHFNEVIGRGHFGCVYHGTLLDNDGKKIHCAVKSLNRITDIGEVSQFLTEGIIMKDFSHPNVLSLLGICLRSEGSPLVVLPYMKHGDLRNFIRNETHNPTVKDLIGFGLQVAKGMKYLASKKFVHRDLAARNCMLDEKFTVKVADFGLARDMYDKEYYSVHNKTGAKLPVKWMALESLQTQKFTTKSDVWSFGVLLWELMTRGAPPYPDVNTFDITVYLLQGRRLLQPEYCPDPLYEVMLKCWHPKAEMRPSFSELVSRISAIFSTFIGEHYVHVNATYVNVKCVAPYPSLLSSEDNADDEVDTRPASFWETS

SMILES	inhibition at 10 µM (CDK2/CycA)	inhibition at 10 µM (CK1-alpha)	inhibition at 10 µM (EGFR)	melting point	inhibition at 10 µM (GSK-3beta)	inhibition at 10 µM (Kit)	inhibition at 10 µM (InsR)	inhibition at 10 µM (Abl)	inhibition at 10 µM (SRPK1)	inhibition at 10 µM (AKT1/PKBa)	inhibition at 10 µM (Jnk1a1)	inhibition at 10 µM (PDGFR-beta)	inhibition at 10 µM (cMet)	inhibition at 10 µM (ROCK2)	inhibition at 10 µM (RSK1)	inhibition at 10 µM (IKK-beta)	inhibition at 10 µM (c-Raf)	inhibition at 10 µM (c-Src)	inhibition at 10 µM (P70S6K)	inhibition at 10 µM (MAPK-ERK1)	further results
Clc1cccc(Nc2nc(C3CC3)nc3sc4c(c23)CCCC4)c1 [Compound 9, (3-Chloro-phenyl)-(2-cyclopropyl-5,6,7,8-tetrahydro-benzo[4,5]thieno[2,3-d]pyrimidin-4-yl)-amine]	-10%	-3%	66%	208.6 °C	-6%	-6%	3%	-20%	7%	-10%	-6%	-2%	-14%	5%	2%	-2%	-6%	3%	0%	2%	inhibition at 10 µM (P56Lck): 0%
Oc1cccc(Nc2nc(C3CC3)nc3sc4ccccc4c23)c1 [Compound 19, 3-(2-Cyclopropyl-benzo[4,5]thieno[2,3-d]pyrimidin-4-ylamino)-phenol]	-12%	9%	54%	222 °C	7%	3%	11%	3%	3%	-5%	-2%	-1%	-12%	7%	-11%	12%	-4%	11%	3%	2%	inhibition at 10 µM (P56Lck): 3%
Brc1cccc(Nc2nc(C3CC3)nc3sc4ccccc4c23)c1 [Compound 18, (2-Cyclopropyl-benzo[4,5]thieno[2,3-d]pyrimidin-4-yl)-(3-bromo-phenyl)-amine]	-2%	10%	87%	180 °C	0%	5%	5%	-2%	12%	0%	-7%	0%	-7%	4%	-4%	3%	-8%	22%	2%	-6%	inhibition at 10 µM (P56Lck): 11%
Fc1ccccc1Nc1ncnc2sc3c(c12)CCCC3 [Compound 1, (2-Fluoro-phenyl)-(5,6,7,8-tetrahydro-benzo[4,5]thieno[2,3-d]pyrimidin-4-yl)-amine]	3%	6%	97%	160.7 °C	7%	13%	-7%	10%	11%	-5%	-4%	4%	1%	3%	-18%	23%	23%	13%	-23%	-8%	inhibition at 10 µM (P56Lck): 10%
COc1cccc(Nc2nc(C3CC3)nc3sc4c(c23)CCCC4)c1 [Compound 15, (2-Cyclopropyl-5,6,7,8-tetrahydro-benzo[4,5]thieno[2,3-d]pyrimidin-4-yl)-(3-methoxy-phenyl)-amine]	-14%	5%	9%	186.7 °C	-6%	1%	23%	12%	12%	-9%	-3%	-7%	-6%	9%	8%	12%	-13%	5%	4%	6%	inhibition at 10 µM (P56Lck): -5%
N#Cc1cccc(Nc2ncnc3sc4c(c23)CCCC4)c1 [Compound 5, 3-(5,6,7,8-Tetrahydro-benzo[4,5]thieno[2,3-d]pyrimidin-4-ylamino)-benzonitrile]	9%	7%	99%	194.6 °C	-6%	-5%	-7%	-7%	7%	-25%	-3%	-5%	-4%	-2%	19%	10%	0%	8%	1%	-5%	inhibition at 10 µM (P56Lck): -5%
N#Cc1cccc(Nc2nc(C3CC3)nc3sc4c(c23)CCCC4)c1 [Compound 14, 3-(2-Cyclopropyl-5,6,7,8-tetrahydro-benzo[4,5]thieno[2,3-d]pyrimidin-4-ylamino)-benzonitrile]	-3%	0%	72%	176.3 °C	2%	-12%	-3%	-3%	11%	-1%	-4%	-4%	-7%	12%	-4%	-6%	-5%	5%	2%	-4%	inhibition at 10 µM (P56Lck): 6%
